Laboratory results published in US20260098008A1, “COVALENT, CHEMOGENETIC ACTIVATORS FOR K2P POTASSIUM CHANNELS AND USES THEREOF” (THE REGENTS OF THE UNIVERSITY OF CALIFORNIA, priority 2022, published 2026).
Residue numbers refer to the chain shown, from its start. Where “and” joins values, the source holds several entries; their conditions need not be identical. Equal values may be shown once.

Assays:
K2P2.1 (TREK-1) = target: T1, K2P2.1 (TREK-1) (Mus musculus, UniProt P97438); assay: Two-electrode voltage clamp (TEVC) in Xenopus oocytes; assay type: cell-based; conditions: for TREK-1 activity class: Fold-activation at 20 uM in oocytes
T1 construct: expressed in transfected cells; host or cells: Xenopus laevis oocytes injected with mRNA (pGEMHE/pMO vector)
T1 sequence (P97438 1-411 isoform P97438-2): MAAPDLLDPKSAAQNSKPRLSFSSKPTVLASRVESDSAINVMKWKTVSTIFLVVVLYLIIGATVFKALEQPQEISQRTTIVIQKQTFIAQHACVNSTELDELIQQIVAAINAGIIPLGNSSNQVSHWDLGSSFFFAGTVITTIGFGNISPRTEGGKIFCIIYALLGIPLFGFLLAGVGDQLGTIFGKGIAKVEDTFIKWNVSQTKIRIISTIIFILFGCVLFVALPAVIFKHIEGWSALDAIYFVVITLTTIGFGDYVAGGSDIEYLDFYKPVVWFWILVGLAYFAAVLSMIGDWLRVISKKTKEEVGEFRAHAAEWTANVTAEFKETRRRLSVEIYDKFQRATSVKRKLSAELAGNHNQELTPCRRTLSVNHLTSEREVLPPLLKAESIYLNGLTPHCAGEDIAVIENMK
Description: (§1) Mouse K2P2.1 (TREK-1) (Genbank accession number: NP_034737.2), mouse K2P10.1 (TREK-2) (NM_001316665.1), mouse K2P4.1 (TRAAK) (NM_008431.3), human K2P4.1 (TRAAK) (NM_033310.2) and mouse K2P18.1(TRESK) (NM_207261.3) were used for this study. Point mutations were introduced by site-directed mutagenesis using custom primers and confirmed by sequencing before use. For studies using Xenopus oocytes, K2P channels were subcloned into a previously reported pGEMHE/pMO vector (46). For expression in HEK293 cells, mouse K2P2.1 (TREK-1) and mutants were expressed from a previously described pIRES2-EGFP vector in HEK293 cells (46,47). K2P2.1 (TREK-1) tandems were constructed by connecting the open reading frames for the individual subunits with a linker encoding the […] (SEQ ID NO: 19) sequence. Tandems used for HEK293 cells included an N-terminal HA tag ([…] (SEQ ID NO: 20)) on the first subunit.
(§2) Xenopus laevis oocytes were harvested according to UCSF IACUC Protocol AN129690 and digested using collagenase (Worthington Biochemical Corporation, #LS004183, 0.8-1.0 mg/mL) in Ca^21-free ND96 (96 mM NaCl, 2 mM KCl, 3.8 mM MgCl2, 5 mM HEPES pH 7.4) immediately post-harvest, as previously reported (31,33). Oocytes were maintained at 18° C. in ND96 (96 mM NaCl, 2 mM KCl, 1.8 mM CaCl2, 2 mM MgCl2, 5 mM HEPES pH 7.4) supplemented with antibiotics (100 units mL^−1 penicillin, 100 μg mL^−1 streptomycin, 50 μg mL^−1 gentimycin) and used for experiments within one week of harvest.
(§3) Defolliculated stage V-VI oocytes were microinjected with 0.5-36 ng mRNA and currents were recorded within 16-48 h hours of injection.
(§4) For recordings, oocytes were impaled with borosilicate recording microelectrodes (0.4-2.0 MΩ resistance) backfilled with 3 M KCl and were subjected to constant perfusion of ND96 at a rate of 3 ml min^−1. Recording solutions containing K2P activators were prepared immediately prior to use from DMSO stocks (20-100 mM), with final DMSO concentrations of 0.1%. Currents were evoked from a −80 mV holding potential followed by a 300 ms ramp from −150 mV to +50 mV. Data were recorded using a GeneClamp 500B amplifier (MDS Analytical Technologies) controlled by pCLAMP8 software (Molecular Devices), and digitized at 1 kHz using Digidata 1332 Å digitizer (MDS Analytical Technologies). For each recording, control solution (ND96) was perfused over a single oocyte until current was stable before switching to solutions containing the test compounds at various concentrations. Representative traces and dose response plots were generated in GraphPad Prism 9.

K2P10.1 (TREK-2)^CG* = target: T2, K2P10.1 (TREK-2)^CG* (Mus musculus, UniProt Q8BUW1, S153C); assay: TEVC in Xenopus oocytes; assay type: cell-based; conditions: Fold-activation at 20 uM in oocytes
T2 construct: Modified TREK-2 from Mus musculus; expressed in transfected cells; host or cells: Xenopus laevis oocytes injected with mRNA
T2 sequence (Q8BUW1 with tags, fused parts or gaps S153C): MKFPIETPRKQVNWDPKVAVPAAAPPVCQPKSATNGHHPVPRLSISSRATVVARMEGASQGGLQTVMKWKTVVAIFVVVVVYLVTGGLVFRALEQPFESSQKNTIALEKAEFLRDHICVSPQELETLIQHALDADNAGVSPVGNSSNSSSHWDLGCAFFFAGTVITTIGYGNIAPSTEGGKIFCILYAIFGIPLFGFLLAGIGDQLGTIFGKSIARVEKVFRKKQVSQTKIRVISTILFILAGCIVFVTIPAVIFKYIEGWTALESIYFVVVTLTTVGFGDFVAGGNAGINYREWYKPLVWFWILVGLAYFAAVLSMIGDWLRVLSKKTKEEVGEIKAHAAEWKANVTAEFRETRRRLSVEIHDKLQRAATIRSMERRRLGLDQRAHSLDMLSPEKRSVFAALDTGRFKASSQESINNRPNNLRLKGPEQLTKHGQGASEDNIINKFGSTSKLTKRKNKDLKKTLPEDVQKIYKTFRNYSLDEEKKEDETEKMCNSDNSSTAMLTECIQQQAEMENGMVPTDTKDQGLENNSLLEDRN
Description: as §1, §2, §3, §4

[1] = target: T3, TREK-1^CG* (K2P2.1 (TREK-1) S131C) (Mus musculus, UniProt P97438, S146C); assay: TEVC in Xenopus oocytes; assay type: cell-based; conditions: Fold-activation at 20 uM in oocytes
T3 construct: expressed in transfected cells; host or cells: Xenopus laevis oocytes injected with mRNA
T3 sequence (P97438 1-411 isoform P97438-2 S131C): T1 sequence (P97438 1-411 isoform P97438-2) with S131C
Description: as §1, §2, §3, §4

TREK-2 = target: T4, TREK-2 (Mus musculus, UniProt Q8BUW1); assay: TEVC in Xenopus oocytes; assay type: cell-based; conditions: Fold-activation at 20 uM in oocytes
T4 construct: expressed in transfected cells; host or cells: Xenopus laevis oocytes injected with mRNA
T4 sequence (Q8BUW1 with tags, fused parts or gaps): T2 sequence (Q8BUW1 with tags, fused parts or gaps S153C) with C156S
Description: as §1, §2, §3, §4

[2] = Solubility in aqueous solutions (crystallization sample preparation); assay type: physicochemical
Experimental: K2P2.1cryst ML335 and ML402 complex crystals grew in the same conditions as K2P2.1cyst, but the protein was incubated for at least 1 h with 2.5 mM of activator before setting the crystal plates. […] Then each compound was diluted 1:100 in SEC buffer to 5 mM concentration, giving a milky solution. This solution was mixed 1:1 to K2P2.1cryst previously concentrated to 12 mg ml^−1. […] The samples were briefly centrifuged in a table-top centrifuge (10,000 g) to remove any insoluble material before setting the crystal plates.

K2P4.1 (TRAAK) = target: T5, K2P4.1 (TRAAK) (Homo sapiens, UniProt Q9NYG8); conditions: previous studies; cited from earlier work
T5 sequence (Q9NYG8 1-393): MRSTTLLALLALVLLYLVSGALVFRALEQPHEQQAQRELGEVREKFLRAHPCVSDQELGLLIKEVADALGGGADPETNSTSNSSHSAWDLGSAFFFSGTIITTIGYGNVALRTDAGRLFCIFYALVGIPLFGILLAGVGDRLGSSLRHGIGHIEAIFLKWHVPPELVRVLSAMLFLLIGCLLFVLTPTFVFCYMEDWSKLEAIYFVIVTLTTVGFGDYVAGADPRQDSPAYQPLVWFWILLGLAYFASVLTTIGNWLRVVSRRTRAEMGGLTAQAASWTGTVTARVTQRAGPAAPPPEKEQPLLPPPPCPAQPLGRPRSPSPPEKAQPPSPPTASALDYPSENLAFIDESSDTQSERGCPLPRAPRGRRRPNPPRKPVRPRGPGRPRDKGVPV

K2P2.1 (TREK-1) S131A = target: T6, K2P2.1 (TREK-1) S131A (Mus musculus, UniProt P97438, S146A); assay: TEVC in Xenopus oocytes; assay type: cell-based; conditions: 20 μM, 0 mV
T6 construct: expressed in transfected cells; host or cells: Xenopus laevis oocytes injected with mRNA
T6 sequence (P97438 1-411 isoform P97438-2 S131A): T1 sequence (P97438 1-411 isoform P97438-2) with S131A
Description: as §1, §2, §3, §4

TREK-1 activity class (K2P2.1 (TREK-1)) | TREK-2 GC activity class (K2P10.1 (TREK-2)^CG*) | TREK-1 GC activity class [1] | TREK-2 activity class (TREK-2) | SMILES | also measured
+ (1.5-2.5 fold) | +++ (>5 fold) | +++ (>5 fold) | + (1.5-2.5 fold) | O=C(NCc1ccc(Cl)cc1Cl)c1ccc(N2C(=O)C=CC2=O)cc1 [Entry 16] | 
+ (1.5-2.5 fold) | +++ (>5 fold) | +++ (>5 fold) | + (1.5-2.5 fold) | CC1=CC(=O)N(c2ccc(C(=O)NCc3ccc(Cl)cc3Cl)cc2)C1=O [Entry 15] | 
 | + (1.5-2.5 fold) | ++ (2.5-5 fold) |  | CC1=C(C)C(=O)N(c2ccc(C(=O)NCc3ccc(Cl)cc3Cl)cc2)C1=O [Entry 20] | 
 |  |  |  | Cc1cc(Cl)ccc1OCCNC(=O)c1cccs1 [ML402] | Solubility in aqueous solutions [2]: insoluble in aqueous solutions; Sensitivity of channel to activator (K2P4.1 (TRAAK)): insensitive
 |  |  |  | C=CC(=O)Nc1ccc(C(=O)NCc2ccc(Cl)cc2Cl)cc1 [ML336] | Reversibility of activation on washout (K2P2.1 (TREK-1); 20 μM, Xenopus oocytes): sustained following washout; Fold-activation (I activator/I control) (K2P2.1 (TREK-1); 20 μM, currents at 0 mV, Xenopus oocytes): 10+1.0 fold and 10.0 (FIG. 1) fold; Fold-activation (I activator/I control) (K2P2.1 (TREK-1) S131A): 16.1 (FIG. 1) fold
